#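 Following 48 hours of exposure in 96-well plates, responses at five concentrations were used to interpolate endpoints linearly. At the TGI there is no net growth.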
# What was measured:
# Experiment in all cases: NCI anticancer screen, dose series, 48 h
# MOLT-4 leukemia = test system: MOLT-4 leukemia
# UO-31 renal = test system: UO-31 renal
# TK-10 renal = test system: TK-10 renal
# UACC-62 melanoma = test system: UACC-62 melanoma
# HCT-116 colon = test system: HCT-116 colon
# UACC-257 melanoma = test system: UACC-257 melanoma
# SW-620 colon = test system: SW-620 colon
# HT29 colon = test system: HT29 colon
# HCC-2998 colon = test system: HCC-2998 colon
# HL-60(TB) leukemia = test system: HL-60(TB) leukemia
# HOP-92 NSCLC = test system: HOP-92 NSCLC
# A498 renal = test system: A498 renal
# NCI-H23 lung = test system: NCI-H23 lung
# ACHN renal = test system: ACHN renal
# MALME-3M melanoma = test system: MALME-3M melanoma
# M14 melanoma = test system: M14 melanoma
# DMS 114 small cell lung = test system: DMS 114 small cell lung
# NCI-H460 lung = test system: NCI-H460 lung
# A549 NSCLC = test system: A549 NSCLC
# KM12 colon = test system: KM12 colon
# K-562 leukemia = test system: K-562 leukemia
# SN12C renal = test system: SN12C renal
# SNB-78 CNS = test system: SNB-78 CNS
# OVCAR-4 ovarian = test system: OVCAR-4 ovarian
# SK-MEL-28 melanoma = test system: SK-MEL-28 melanoma
# CCRF-CEM leukemia = test system: CCRF-CEM leukemia
# SR leukemia = test system: SR leukemia
# LXFL 529 NSCLC = test system: LXFL 529 NSCLC
# SNB-19 CNS = test system: SNB-19 CNS
# M19-MEL melanoma = test system: M19-MEL melanoma
# SF-268 CNS = test system: SF-268 CNS
# KM20L2 colon = test system: KM20L2 colon
# OVCAR-3 ovarian = test system: OVCAR-3 ovarian
# XF 498 CNS = test system: XF 498 CNS
# OVCAR-8 ovarian = test system: OVCAR-8 ovarian
# NCI-H522 lung = test system: NCI-H522 lung
# HCT-15 colon = test system: HCT-15 colon
# RXF 393 renal = test system: RXF 393 renal
# EKVX NSCLC = test system: EKVX NSCLC
# U251 CNS = test system: U251 CNS
# SNB-75 CNS = test system: SNB-75 CNS
# CAKI-1 renal = test system: CAKI-1 renal
# SK-MEL-5 melanoma = test system: SK-MEL-5 melanoma
# 786-0 renal = test system: 786-0 renal
# SK-MEL-2 melanoma = test system: SK-MEL-2 melanoma
# NCI-H226 lung = test system: NCI-H226 lung
# COLO 205 colon = test system: COLO 205 colon
# IGROV1 ovarian = test system: IGROV1 ovarian
# DMS 273 small cell lung = test system: DMS 273 small cell lung
# HOP-18 NSCLC = test system: HOP-18 NSCLC
# LOX IMVI melanoma = test system: LOX IMVI melanoma
# OVCAR-5 ovarian = test system: OVCAR-5 ovarian
# SK-OV-3 ovarian = test system: SK-OV-3 ovarian
# DLD-1 colon = test system: DLD-1 colon
# HOP-62 NSCLC = test system: HOP-62 NSCLC
# SF-539 CNS = test system: SF-539 CNS
# SF-295 CNS = test system: SF-295 CNS
smiles,measurement,setting,value
Cc1cc(OCC(O)CO)ccc1-c1ccccc1 (configuration not stated),TGI,MOLT-4 leukemia,> 100 µM
same,TGI,UO-31 renal,> 100 µM
same,TGI,TK-10 renal,> 100 µM
same,TGI,UACC-62 melanoma,> 100 µM
same,TGI,HCT-116 colon,> 100 µM
same,TGI,UACC-257 melanoma,> 100 µM
same,TGI,SW-620 colon,23.7 µM
same,TGI,HT29 colon,> 100 µM
same,TGI,HCC-2998 colon,> 100 µM
same,TGI,HL-60(TB) leukemia,> 100 µM
same,TGI,HOP-92 NSCLC,> 100 µM
same,TGI,A498 renal,80.4 µM
same,TGI,NCI-H23 lung,> 100 µM
same,TGI,ACHN renal,> 100 µM
same,TGI,MALME-3M melanoma,> 100 µM
same,TGI,M14 melanoma,> 100 µM
same,TGI,DMS 114 small cell lung,> 100 µM
same,TGI,NCI-H460 lung,> 100 µM
same,TGI,A549 NSCLC,> 100 µM
same,TGI,KM12 colon,> 100 µM
same,TGI,K-562 leukemia,> 100 µM
same,TGI,SN12C renal,> 100 µM
same,TGI,SNB-78 CNS,> 100 µM
same,TGI,OVCAR-4 ovarian,> 100 µM
same,TGI,SK-MEL-28 melanoma,> 100 µM
same,TGI,CCRF-CEM leukemia,> 100 µM
same,TGI,SR leukemia,> 100 µM
same,TGI,LXFL 529 NSCLC,> 100 µM
same,TGI,SNB-19 CNS,> 100 µM
same,TGI,M19-MEL melanoma,> 100 µM
same,TGI,SF-268 CNS,> 100 µM
same,TGI,KM20L2 colon,> 100 µM
same,TGI,OVCAR-3 ovarian,> 100 µM
same,TGI,XF 498 CNS,> 100 µM
same,TGI,OVCAR-8 ovarian,> 100 µM
same,TGI,NCI-H522 lung,> 100 µM
same,TGI,HCT-15 colon,> 100 µM
same,TGI,RXF 393 renal,87.1 µM
same,TGI,EKVX NSCLC,> 100 µM
same,TGI,U251 CNS,> 100 µM
same,TGI,SNB-75 CNS,> 100 µM
same,TGI,CAKI-1 renal,> 100 µM
same,TGI,SK-MEL-5 melanoma,> 100 µM
same,TGI,786-0 renal,> 100 µM
same,TGI,SK-MEL-2 melanoma,> 100 µM
same,TGI,NCI-H226 lung,> 100 µM
same,TGI,COLO 205 colon,> 100 µM
same,TGI,IGROV1 ovarian,> 100 µM
same,TGI,DMS 273 small cell lung,> 100 µM
same,TGI,HOP-18 NSCLC,> 100 µM
OCc1nnn2c1CCC2,TGI,MOLT-4 leukemia,> 100 µM
same,TGI,UO-31 renal,> 100 µM
same,TGI,TK-10 renal,> 100 µM
same,TGI,UACC-62 melanoma,> 100 µM
same,TGI,UACC-257 melanoma,> 100 µM
same,TGI,SW-620 colon,> 100 µM
same,TGI,HT29 colon,> 100 µM
same,TGI,HCC-2998 colon,> 100 µM
same,TGI,HL-60(TB) leukemia,> 100 µM
same,TGI,HOP-92 NSCLC,> 100 µM
same,TGI,LOX IMVI melanoma,> 100 µM
same,TGI,NCI-H23 lung,> 100 µM
same,TGI,ACHN renal,> 100 µM
same,TGI,MALME-3M melanoma,> 100 µM
same,TGI,M14 melanoma,> 100 µM
same,TGI,OVCAR-5 ovarian,> 100 µM
same,TGI,NCI-H460 lung,> 100 µM
same,TGI,SK-OV-3 ovarian,> 100 µM
same,TGI,A549 NSCLC,> 100 µM
same,TGI,KM12 colon,> 100 µM
same,TGI,K-562 leukemia,> 100 µM
same,TGI,SN12C renal,> 100 µM
same,TGI,SNB-78 CNS,> 100 µM
same,TGI,OVCAR-4 ovarian,> 100 µM
same,TGI,DLD-1 colon,> 100 µM
same,TGI,SK-MEL-28 melanoma,> 100 µM
same,TGI,HOP-62 NSCLC,> 100 µM
same,TGI,CCRF-CEM leukemia,> 100 µM
same,TGI,SF-539 CNS,> 100 µM
same,TGI,SR leukemia,> 100 µM
same,TGI,LXFL 529 NSCLC,> 100 µM
same,TGI,M19-MEL melanoma,> 100 µM
same,TGI,KM20L2 colon,> 100 µM
same,TGI,OVCAR-3 ovarian,> 100 µM
same,TGI,XF 498 CNS,> 100 µM
same,TGI,OVCAR-8 ovarian,> 100 µM
same,TGI,NCI-H522 lung,> 100 µM
same,TGI,HCT-15 colon,> 100 µM
same,TGI,RXF 393 renal,> 100 µM
same,TGI,EKVX NSCLC,> 100 µM
same,TGI,U251 CNS,> 100 µM
same,TGI,SNB-75 CNS,> 100 µM
same,TGI,SK-MEL-5 melanoma,> 100 µM
same,TGI,SF-295 CNS,> 100 µM
same,TGI,SK-MEL-2 melanoma,> 100 µM
same,TGI,IGROV1 ovarian,> 100 µM
same,TGI,HOP-18 NSCLC,> 100 µM
